Data published in patent US20090220604A1, “AMINO ACIDS IN MICELLE PREPARATION” (ANGIOTECH INTERNATIONAL AG, priority 2002, published 2009).

Test: Recovery of paclitaxel added to mixtures after heating to 55° C. for 1 hour (reverse phase HPLC with UV detection)
Assay type: physicochemical
Method: The desirability of removing unreacted starting materials and/or acidic reaction by-products can be seen by reference to the data in Table 1. […] According to the data, when paclitaxel is combined with a diblock copolymer having up to 2% residual monomer and up to 0.2 μmol/mg acid content (expressed as the number of protons titrated in a solution prepared by dissolving 1 mg of diblock copolymer in water), after heating, only 95% of the paclitaxel initially added to the mixture could be recovered, as quantified using a reverse phase HPLC assay with UV detection and a taxane optimized C18 column.

## CC(=O)O[C@H]1C(=O)[C@@]2(C)[C@H]([C@H](OC(=O)c3ccccc3)[C@]3(O)C[C@H](OC(=O)[C@H](O)[C@@H](NC(=O)c4ccccc4)c4ccccc4)C(C)=C1C3(C)C)[C@]1(OC(C)=O)CO[C@@H]1C[C@@H]2O [paclitaxel]
Combined with diblock copolymer having up to 2% residual monomer and up to 0.2 μmol/mg acid content
  Paclitaxel recovered after heating: 95%
Combined with methoxypolyethylene glycol, no measured acidic components and no DL-lactide monomer
  Paclitaxel recovered after heating: 99%
Diblock copolymer with greatly reduced quantities of residual monomer and acidic components
  Paclitaxel recovered after heating: 98%
